Experimental data from patent US8946413B2 (Pfizer Inc., priority 2008, dated 2015).
Read-outs that look alike come from different tables or passages of the source.

Target: T1, CCR2 (Homo sapiens, UniProt P41597)
T1 construct: (leukophoresis pack); host or cells: human peripheral blood mononuclear cells (PBMCs) from a normal human leukophoresis pack
Assay: hCCR2 (125-I hMCP-1) small molecule binding assay on human PBMCs
Conditions: 125I-MCP-1, human PBMCs
Text: The CCR2 antagonist activity of compounds of the invention can be reported as the inhibitor concentration required for 50% inhibition (IC50 values) of specific binding in receptor binding assays using 125I-labeled MCP-1, as ligand, and Peripheral Blood Mononuclear Cells (PBMCs) prepared from normal human whole blood via density gradient centrifugation. Specific binding is defined as the total binding (e.g., total cpm on filters) minus the non-specific binding. Non-specific binding is defined as the amount of cpm still defected in the presence of excess unlabeled competitor (e.g., MCP-1),
Human PBMCs were used to test compounds of the invention in a binding assay. For example, 200,000 to 500,000 cells were incubated with 0.1 to 0.2 nM 125I-labeled MCP-1, with or without unlabeled competitor (10 nM MCP-1) or various concentrations of compounds to be tested. 125I-labeled MCP-1, were prepared by suitable methods or purchased from commercial vendors (Perkin Elmer, Boston Mass.). The binding reactions were performed in 50 to 250 μL of a binding buffer consisting of […] pH 7.2, and 0.1% BSA (bovine serum albumin), for 30 minutes at room temperature. The binding reactions were terminated by harvesting the membranes by rapid filtration through glass fiber filters (Perkin Elmer) which was presoaked in 0.3% polyethyleneimine or Phosphate Buffered Saline (PBS). The filters were rinsed with approximately 600 μL of binding buffer containing, 0.5 M NaCl or PBS, then dried, and the amount of bound radioactivity was determined by counting on a Gamma Counter (Perkin Elmer).
More specifically, the following assay may be employed to determine IC50 values for the compounds of the present invention.
hCCR2 (125-I hMCP-1) Small Molecule Binding Assay
Normal human leukophoresis pack contents, available from Biological Specialty Corporation, Colmar, Pa., is diluted 1:1 with PBS, divided into 50 ml conical tubes (preferably less than 40 mls per tube), and underlayed with 10 mls of Ficoll-Paque PLUS (GE Healthcare 17-1440-02). The tubes are centrifuged at 2800 rpm in a clinical centrifuge at room temperature for 30 mins, with no brake. The plasma layer is suctioned, and the buffycoat layer is collected. The collected buffycoat layer is washed twice with 50 mls PBS, and centrifuged at 1400 rpm with brake. The cells are counted. The cells are then diluted to 1×10^7 cells per ml in binding buffer.
96 well plates (such as, for example, Millipore MultiScreen96 plates) are pre-wet with about 100 μl binding buffer (RPMI+0.1% BSA+20 mM HEPES), and blotted just prior to compound addition.
5 μl of 50 μM test compounds in 100% DMSO are dotted onto U-bottom polypropylene 96-well plates.
245 μl per well of Binding Buffer is added to each well for 1 μM compound concentration in 2% DMSO.
50 μl of 1 μM compound is transferred to pre-wetted Millipore plates. 50 μl per well of 1×10E7 cells per ml of freshly prepared human PBMCs are added.
The samples are pre-incubated at room temperature for 30 minutes or 1 hour.
50 μl of 450 pM 125-I-hMCP-1 (Perkin-Elmer/NEN cat#NEX332025UC) is added for a final concentration 125-I-hMCP-1 of 150 pM per well.
The final test compound concentration is 0.333 uM in 150 μl total volume with 0.67% DMSO in all wells. Controls for this assay consist of 0% inhibition and 100% inhibition with 1 uM hMCP-1 (saturating conditions). All wells are run in duplicate. Controls may be in replicates of eight.
The samples are incubated at room temperature for 30 minutes.
The buffer is suctioned through the Millipore plates. The plates are washed three times with Wash Buffer (PRMI+0.1% BSA+20 mM HEPES+ 0.4 M NaC).
The plate underdrain is removed. The plate filters are allowed to dry. The filters are then punched out into plastic tubes.
Finally, the sample is counted an a Gamma Counter.
All IC50 plates were repeated for an n=2.
The following table summarizes the IC50 values identified through the described assay.

[1] = 30 min preincubation, read-out: IC50 (nM) 30 min preinc
[2] = 1 hr preincubation, read-out: IC50 (nM) 1 hr preinc

T1 sequence (P41597 whole entry): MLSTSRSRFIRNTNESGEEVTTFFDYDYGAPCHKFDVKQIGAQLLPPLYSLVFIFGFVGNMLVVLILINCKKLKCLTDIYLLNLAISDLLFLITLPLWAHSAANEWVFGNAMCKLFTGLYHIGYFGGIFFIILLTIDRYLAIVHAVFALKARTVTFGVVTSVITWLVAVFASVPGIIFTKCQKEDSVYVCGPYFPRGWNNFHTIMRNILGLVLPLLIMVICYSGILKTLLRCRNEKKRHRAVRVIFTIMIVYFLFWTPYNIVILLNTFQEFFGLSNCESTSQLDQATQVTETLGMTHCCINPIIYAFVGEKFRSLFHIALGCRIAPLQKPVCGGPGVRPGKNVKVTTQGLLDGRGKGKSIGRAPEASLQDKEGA

Structure (SMILES)	IC50 [1] [nM]	IC50 [2] [nM]
CO[C@@H]1COCC[C@@H]1N[C@@H]1CC[C@@](C(=O)N2C[C@@H]3C[C@H]2CN3c2cc(C(F)(F)F)cnn2)(C(C)C)C1 [Example 18, 1,5-anhydro-2,3-dideoxy-3-{[(1R,3S)-3-isopropyl-3-({(1S,4S)-5-[5-(trifluoromethyl)pyridazin-3-yl]-2,5-diazabicyclo[2.2.1]hept-2-yl}carbonyl)cyclopentyl]amino}-4-O-methyl-D-erythro-pentitol]	37.6	8.5
CO[C@@H]1COCC[C@@H]1N[C@@H]1CC[C@@](C(=O)N2C[C@@H]3C[C@H]2CN3c2cc(C(F)(F)F)nc(C(F)(F)F)c2)(C(C)C)C1 [Example 19, 1,5-anhydro-3-{[(1R,3S)-3-isopropyl-3-({(1S,4S)-5-[2,6-bis(trifluoromethyl)pyridin-4-yl]-2,5-diazabicyclo[2.2.1]hept-2-yl}carbonyl)-3-isopropylcyclopentyl]amino}-2,3-dideoxy-4-O-methyl-D-erythro-pentitol]	20.4	6.35
CO[C@@H]1COCC[C@@H]1N[C@@H]1CC[C@@](C(=O)N2C[C@@H]3C[C@H]2CN3c2nccc(C(F)(F)F)c2F)(C(C)C)C1 [Example 20, 1,5-anhydro-2,3-dideoxy-3-{[(1R,3S)-3-({(1S,4S)-5-[3-fluoro-4-(trifluoromethyl)pyridin-2-yl]-2,5-diazabicyclo[2.2.1]hept-2-yl}carbonyl)-3-isopropylcyclopentyl]amino}-4-O-methyl-D-erythro-pentitol]	8.59	
CO[C@@H]1COCC[C@@H]1N[C@@H]1CC[C@@](C(=O)N2C[C@@H]3C[C@H]2CN3c2cc(C(F)(F)F)cc(C)n2)(C(C)C)C1 [Example 21, 1,5-anhydro-2,3-dideoxy-3-{[(1R,3S)-3-isopropyl-3-({(1S,4S)-5-[6-methyl-4-(trifluoromethyl)pyridin-2-yl]-2,5-diazabicyclo[2.2.1]hept-2-yl}carbonyl)cyclopentyl]amino}-4-O-methyl-D-erythro-pentitol]		3.1
CO[C@@H]1COCC[C@@H]1N[C@@H]1CC[C@@](C(=O)N2C[C@@H]3C[C@H]2CN3c2cccc(C(F)(F)F)c2)(C(C)C)C1 [Example 22, 1,5-anhydro-2,3-dideoxy-3-{[(1R,3S)-3-isopropyl-3-({(1S,4S)-5-[3-(trifluoromethyl)phenyl]-2,5-diazabicyclo[2.2.1]hept-2-yl}carbonyl)cyclopentyl]amino}-4-O-methyl-D-erythro-pentitol]		1.1
CO[C@@H]1COCC[C@@H]1N[C@@H]1CC[C@@](C(=O)N2C[C@@H]3C[C@H]2CN3c2cc(F)cc(C(F)(F)F)c2)(C(C)C)C1 [Example 23, 1,5-anhydro-2,3-dideoxy-3-{[(1R,3S)-3-({(1S,4S)-5-[3-fluoro-5-(trifluoromethyl)phenyl]-2,5-diazabicyclo[2.2.1]hept-2-yl}carbonyl)-3-isopropylcyclopentyl]amino}-4-O-methyl-D-erythro-pentitol]		0.94
CO[C@@H]1COCC[C@@H]1N[C@@H]1CC[C@](CC(F)F)(C(=O)N2C[C@@H]3C[C@H]2CN3c2cc(C(F)(F)F)ncn2)C1 [Example 24, 1,5-anhydro-2,3-dideoxy-3-{[(1R,3S)-3-(2,2-difluoroethyl)-3-({(1S,4S)-5-[6-(trifluoromethyl)pyrimidin-4-yl]-2,5-diazabicyclo[2.2.1]hept-2-yl}carbonyl)cyclopentyl]amino}-4-O-methyl-D-erythro-pentitol]	79.7	8.87
CO[C@@H]1COCC[C@@H]1N[C@@H]1CC[C@](CC(F)F)(C(=O)N2C[C@@H]3C[C@H]2CN3c2cc(C(F)(F)F)ccn2)C1 [Example 25, 1,5-anhydro-2,3-dideoxy-3-{[(1R,3S)-3-(2,2-difluoroethyl)-3-({(1S,4S)-5-[4-(trifluoromethyl)pyridin-2-yl]-2,5-diazabicyclo[2.2.1]hept-2-yl}carbonyl)cyclopentyl]amino}-4-O-methyl-D-erythro-pentitol]	6.58	0.93
CO[C@@H]1COCC[C@@H]1N[C@@H]1CC[C@](CC(F)F)(C(=O)N2C[C@@H]3C[C@H]2CN3c2ccnc(C(F)(F)F)c2)C1 [Example 26, 1,5-anhydro-2,3-dideoxy-3-{[(1R,3S)-3-(2,2-difluoroethyl)-3-({(1S,4S)-5-[2-(trifluoromethyl)pyridin-4-yl]-2,5-diazabicyclo[2.2.1]hept-2-yl}carbonyl)cyclopentyl]amino}-4-O-methyl-D-erythro-pentitol]	29.3	7.85
CO[C@@H]1COCC[C@@H]1N[C@@H]1CC[C@](CC(F)F)(C(=O)N2C[C@@H]3C[C@H]2CN3c2nccc(C(F)(F)F)n2)C1 [Example 27, 1,5-anhydro-2,3-dideoxy-3-{[(1R,3S)-3-(2,2-difluoroethyl)-3-({(1S,4S)-5-[4-(trifluoromethyl)pyrimidin-2-yl]-2,5-diazabicyclo[2.2.1]hept-2-yl}carbonyl)cyclopentyl]amino}-4-O-methyl-D-erythro-pentitol]	16.2	2.04
CO[C@@H]1COCC[C@@H]1N[C@@H]1CC[C@](CC(F)F)(C(=O)N2C[C@@H]3C[C@H]2CN3c2cccc(C(F)(F)F)n2)C1 [Example 28, 1,5-anhydro-2,3-dideoxy-3-{[(1R,3S)-3-(2,2-difluoroethyl)-3-({(1S,4S)-5-[6-(trifluoromethyl)pyridin-2-yl]-2,5-diazabicyclo[2.2.1]hept-2-yl}carbonyl)cyclopentyl]amino}-4-O-methyl-D-erythro-pentitol]		1.88
CO[C@@H]1COCC[C@@H]1N[C@@H]1CC[C@](CC(F)F)(C(=O)N2C[C@@H]3C[C@H]2CN3c2cncc(C(F)(F)F)n2)C1 [Example 29, 1,5-anhydro-2,3-dideoxy-3-{[(1R,3S)-3-(2,2-difluoroethyl)-3-({(1S,4S)-5-[6-(trifluoromethyl)pyrazin-2-yl]-2,5-diazabicyclo[2.2.1]hept-2-yl}carbonyl)cyclopentyl]amino}-4-O-methyl-D-erythro-pentitol]		2.75
CO[C@@H]1COCC[C@@H]1N[C@@H]1CC[C@](CC(F)F)(C(=O)N2C[C@@H]3C[C@H]2CN3c2ccnc(C(F)(F)F)n2)C1 [Example 30, 1,5-anhydro-2,3-dideoxy-3-{[(1R,3S)-3-(2,2-difluoroethyl)-3-({(1S,4S)-5-[2-(trifluoromethyl)pyrimidin-4-yl]-2,5-diazabicyclo[2.2.1]hept-2-yl}carbonyl)cyclopentyl]amino}-4-O-methyl-D-erythro-pentitol]	32.9	11.8
CO[C@@H]1COCC[C@@H]1N[C@@H]1CC[C@](CC(F)F)(C(=O)N2C[C@@H]3C[C@H]2CN3c2cc(C(F)(F)F)cnn2)C1 [Example 31, 1,5-anhydro-2,3-dideoxy-3-{[(1R,3S)-3-(2,2-difluoroethyl)-3-({(1S,4S)-5-[5-(trifluoromethyl)pyridazin-3-yl]-2,5-diazabicyclo[2.2.1]hept-2-yl}carbonyl)cyclopentyl]amino}-4-O-methyl-D-erythro-pentitol]		6.35
CO[C@@H]1COCC[C@@H]1N[C@@H]1CC[C@](CC(F)(F)F)(C(=O)N2C[C@@H]3C[C@H]2CN3c2cc(C(F)(F)F)ncn2)C1 [Example 32, 1,5-anhydro-2,3-dideoxy-4-O-methyl-3-{[(1R,3S)-3-(2,2,2-trifluoroethyl)-3-({(1S,4S)-5-[6-(trifluoromethyl)pyrimidin-4-yl]-2,5-diazabicyclo[2.2.1]hept-2-yl}carbonyl)cyclopentyl]amino}-D-erythro-pentitol]	13.8	11.7
